Data as given in US4022787A (priority 1975, dated 1977).
Structures can show the parent of a compound that is named as a salt.

How the values were obtained:
rabbit eye pupil = details: in vivo
sweat glands = details: cited from earlier work

| Structure (SMILES) | rabbit eye pupil result compared with test compound (rabbit eye pupil) | sweat inhibition (sweat glands) |
| --- | --- | --- |
| CN1[C@@H]2CC[C@H]1C[C@@H](OC(=O)C(CO)c1ccccc1)C2 (some centres unmarked) [Atropine sulfate] | gave similar results |  |
| CN1C2CC(OC(=O)C(COC(=O)c3ccccc3)c3ccccc3)CC1C1OC12 (centres unmarked) [benzoyl ester of scopolamine] |  | valuable for sweat inhibition |
